Assays:
Format in all cases: cell-based
[1] = target: T1, human TLR8 (Homo sapiens, UniProt Q9NR97); test: TLR8 inhibition reporter assay (HEK-Blue cells, SEAP reporter); conditions: HEK-Blue cells overexpressing human TLR8; stimulated with R848 15.9 μM; SEAP after 22 hour incubation
T1 construct: host or cells: HEK-Blue cells (HEK293-derived reporter line)
T1 sequence (Q9NR97 27-1041): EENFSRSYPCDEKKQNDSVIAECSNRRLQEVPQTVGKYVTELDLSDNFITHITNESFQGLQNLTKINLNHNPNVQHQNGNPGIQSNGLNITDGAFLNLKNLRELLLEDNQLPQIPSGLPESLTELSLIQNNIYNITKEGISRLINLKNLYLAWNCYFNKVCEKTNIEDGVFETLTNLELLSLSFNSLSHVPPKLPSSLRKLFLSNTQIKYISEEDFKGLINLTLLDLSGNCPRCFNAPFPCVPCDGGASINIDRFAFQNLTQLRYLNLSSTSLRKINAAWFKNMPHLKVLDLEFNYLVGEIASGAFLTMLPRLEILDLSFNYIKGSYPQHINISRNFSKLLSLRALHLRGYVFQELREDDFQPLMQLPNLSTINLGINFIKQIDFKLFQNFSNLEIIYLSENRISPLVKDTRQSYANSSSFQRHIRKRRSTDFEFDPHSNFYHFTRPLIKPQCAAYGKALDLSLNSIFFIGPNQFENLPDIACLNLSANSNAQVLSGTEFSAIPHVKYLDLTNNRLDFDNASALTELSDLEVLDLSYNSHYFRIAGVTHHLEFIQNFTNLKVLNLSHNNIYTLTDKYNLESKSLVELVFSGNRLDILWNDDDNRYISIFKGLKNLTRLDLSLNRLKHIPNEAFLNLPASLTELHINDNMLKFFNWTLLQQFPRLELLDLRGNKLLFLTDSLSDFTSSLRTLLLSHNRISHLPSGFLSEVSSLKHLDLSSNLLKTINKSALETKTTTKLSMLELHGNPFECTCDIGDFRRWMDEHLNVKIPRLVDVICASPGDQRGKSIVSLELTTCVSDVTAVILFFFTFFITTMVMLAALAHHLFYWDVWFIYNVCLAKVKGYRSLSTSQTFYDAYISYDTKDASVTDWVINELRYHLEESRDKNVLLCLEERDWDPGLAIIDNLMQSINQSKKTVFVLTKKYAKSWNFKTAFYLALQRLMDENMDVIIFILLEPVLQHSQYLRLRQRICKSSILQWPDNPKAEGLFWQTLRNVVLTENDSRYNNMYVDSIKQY
Method: (§1) TLR7/8/9 Inhibition Reporter Assays
(§2) HEK-Blue™-cells (Invivogen) overexpressing human TLR7, TLR8 or TLR9 receptors were used for screening inhibitors of these receptors using an inducible SEAP (secreted embryonic alkaline phosphatase) reporter gene under the control of the IFN-β minimal promoter fused to five NF-κB and AP-1-binding sites. Briefly, cells are seeded into Greiner 384 well plates (15000 cells per well for TLR7, 20,000 for TLR8 and 25,000 for TLR9) and then treated with test compounds in DMSO to yield a final dose response concentration range of 0.05 nM-50 μM. After a 30 minute compound pre-treatment at room temperature, the cells are then stimulated with a TLR7 ligand (gardiquimod at a final concentration of 7.5 μM), TLR8 ligand (R848 at a final concentration of 15.9 μM) or TLR9 ligand (ODN2006 at a final concentration of 5 nM) to activate NF-κB and AP-1 which induce the production of SEAP. After a 22 hour incubation at 37° C., 5% CO2, SEAP levels are determined with the addition of HEK-Blue™ Detection reagent (Invivogen), a cell culture medium that allows for detection of SEAP, according to manufacturer's specifications. The percent inhibition is determined as the % reduction in the HEK-Blue signal present in wells treated with agonist plus DMSO alone compared to wells treated with a known inhibitor.

[2] = target: T2, human TLR9 (Homo sapiens, UniProt Q9NR96); test: TLR9 inhibition reporter assay (HEK-Blue cells, SEAP reporter); conditions: HEK-Blue cells overexpressing human TLR9; stimulated with ODN2006 5 nM; SEAP after 22 hour incubation
T2 construct: host or cells: HEK-Blue cells (HEK293-derived reporter line)
T2 sequence (Q9NR96 26-1032): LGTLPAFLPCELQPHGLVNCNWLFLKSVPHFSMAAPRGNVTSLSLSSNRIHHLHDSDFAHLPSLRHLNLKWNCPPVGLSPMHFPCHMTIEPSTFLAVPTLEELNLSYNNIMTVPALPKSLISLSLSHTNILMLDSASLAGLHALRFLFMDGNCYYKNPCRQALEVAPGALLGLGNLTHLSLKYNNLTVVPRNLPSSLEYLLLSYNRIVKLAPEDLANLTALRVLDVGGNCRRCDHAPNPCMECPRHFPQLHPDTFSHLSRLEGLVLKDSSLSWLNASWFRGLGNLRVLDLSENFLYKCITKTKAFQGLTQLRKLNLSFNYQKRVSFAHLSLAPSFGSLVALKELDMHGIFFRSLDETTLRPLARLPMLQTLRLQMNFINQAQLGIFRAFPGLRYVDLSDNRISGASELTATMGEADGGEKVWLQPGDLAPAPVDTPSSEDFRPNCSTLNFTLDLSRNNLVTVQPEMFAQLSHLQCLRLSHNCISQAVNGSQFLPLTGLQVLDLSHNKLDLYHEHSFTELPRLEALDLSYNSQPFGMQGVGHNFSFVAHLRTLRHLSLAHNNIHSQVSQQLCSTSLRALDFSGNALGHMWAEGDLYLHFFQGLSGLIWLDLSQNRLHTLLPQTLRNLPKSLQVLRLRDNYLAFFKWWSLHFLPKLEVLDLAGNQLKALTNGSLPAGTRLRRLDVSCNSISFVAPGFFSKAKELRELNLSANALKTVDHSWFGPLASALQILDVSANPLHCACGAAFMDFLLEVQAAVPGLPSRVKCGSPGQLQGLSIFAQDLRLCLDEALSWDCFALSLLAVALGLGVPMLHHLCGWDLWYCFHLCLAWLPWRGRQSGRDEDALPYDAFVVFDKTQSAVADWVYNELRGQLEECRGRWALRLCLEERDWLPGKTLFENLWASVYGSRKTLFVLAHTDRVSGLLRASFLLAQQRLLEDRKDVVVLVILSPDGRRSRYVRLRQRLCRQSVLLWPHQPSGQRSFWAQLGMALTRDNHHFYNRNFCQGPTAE
Method: as §1, §2

[3] = target: T3, human TLR7 (Homo sapiens, UniProt Q9NYK1); test: TLR7 inhibition reporter assay (HEK-Blue cells, SEAP reporter); conditions: HEK-Blue cells overexpressing human TLR7; stimulated with gardiquimod 7.5 μM; SEAP after 22 hour incubation
T3 construct: host or cells: HEK-Blue cells (HEK293-derived reporter line)
T3 sequence (Q9NYK1 27-1049): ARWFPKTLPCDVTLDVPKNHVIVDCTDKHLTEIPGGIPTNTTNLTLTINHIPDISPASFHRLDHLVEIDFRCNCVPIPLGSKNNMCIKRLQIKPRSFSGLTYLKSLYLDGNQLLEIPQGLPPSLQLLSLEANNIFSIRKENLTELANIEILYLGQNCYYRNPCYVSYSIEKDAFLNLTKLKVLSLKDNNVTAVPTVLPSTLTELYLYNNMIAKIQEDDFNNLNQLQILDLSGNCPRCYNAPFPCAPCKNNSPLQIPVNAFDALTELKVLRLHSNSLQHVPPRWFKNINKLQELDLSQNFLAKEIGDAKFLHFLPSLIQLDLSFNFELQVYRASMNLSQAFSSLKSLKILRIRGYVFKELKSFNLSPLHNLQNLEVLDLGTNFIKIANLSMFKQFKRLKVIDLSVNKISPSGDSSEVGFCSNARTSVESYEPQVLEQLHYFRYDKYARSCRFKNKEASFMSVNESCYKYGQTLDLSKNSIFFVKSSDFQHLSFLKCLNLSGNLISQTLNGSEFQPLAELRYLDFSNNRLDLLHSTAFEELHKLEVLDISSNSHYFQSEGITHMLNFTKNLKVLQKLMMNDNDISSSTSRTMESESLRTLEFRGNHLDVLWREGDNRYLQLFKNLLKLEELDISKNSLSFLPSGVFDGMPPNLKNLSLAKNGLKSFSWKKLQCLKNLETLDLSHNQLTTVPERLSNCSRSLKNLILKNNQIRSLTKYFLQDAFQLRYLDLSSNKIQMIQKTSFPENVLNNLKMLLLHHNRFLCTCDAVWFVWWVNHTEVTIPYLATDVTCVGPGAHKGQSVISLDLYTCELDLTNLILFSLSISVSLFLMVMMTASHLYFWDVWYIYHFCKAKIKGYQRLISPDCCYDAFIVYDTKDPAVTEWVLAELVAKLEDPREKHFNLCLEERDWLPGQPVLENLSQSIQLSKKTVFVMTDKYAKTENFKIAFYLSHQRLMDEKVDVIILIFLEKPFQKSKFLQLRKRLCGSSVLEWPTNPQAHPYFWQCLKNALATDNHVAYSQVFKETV
Method: as §1, §2

IC50 [1] [nM] | IC50 [2] [nM] | IC50 [3] [nM] | Structure (SMILES)
> 25000 | 505 | > 25000 | COc1cc(-c2cc3ncc(-c4ccc(N5CCN(C(C)C)CC5)cc4)cc3n2C)ccc1C#N [Example 38, 4-[6-[4-(4-isopropylpiperazin-1-yl)phenyl]-1-methyl-pyrrolo[3,2-b]pyridin-2-yl]-2-methoxy-benzonitrile]
> 25000 | 101 | > 25000 | COc1ccc(-c2cc3ncc(-c4ccc(N5CCN(C(C)C)CC5)cc4)cc3n2C)cc1C#N [Example 39]
2100 | 76 | 8100 | CC(C)N1CCN(c2ccc(-c3cnc4cc(-c5cccc(S(=O)(=O)N(C)C)c5)n(C)c4c3)cc2)CC1 [Example 40]
1600 | 157 | 10000 | CC(C)N1CCN(c2ccc(-c3cnc4cc(-c5ccc(S(C)(=O)=O)cc5F)n(C)c4c3)cc2)CC1 [Example 41]

The next lines start with the compound.

Structure (SMILES) | IC50 [1] [nM] | IC50 [2] [nM] | IC50 [3] [nM]
CC(C)N1C[C@@H](C)N(c2ccc(-c3cnc4cc(-c5ccc(S(C)(=O)=O)cc5)n(C)c4c3)cc2)[C@@H](C)C1 [Example 33] | 4200 | 383 | 3800
CC(C)N1[C@H](C)CN(c2ccc(-c3cnc4cc(-c5ccc(S(C)(=O)=O)cc5)n(C)c4c3)cc2)C[C@@H]1C [Example 34] | > 50000 | 244 | > 50000
CC(C)CN1[C@@H]2CC[C@H]1CC(N1CCC(c3cnc4cc(-c5ccc(S(C)(=O)=O)cc5)n(C)c4c3)CC1)C2 (stereo partly drawn) [Example 36] | > 50000 | 22 | 10500
CC(C)CN1[C@@H]2CC[C@H]1C[C@@H](N1CCC(c3cnc4cc(-c5ccc(S(=O)(=O)C6CC6)cc5)n(C)c4c3)CC1)C2 [Example 37, 2-(4-cyclopropylsulfonylphenyl)-1-methyl-6-[1-[rac-(1S,5R)-8-isobutyl-8-azabicyclo[3.2.1]octan-3-yl]-4-piperidyl]pyrrolo[3,2-b]pyridine] | > 50000 | 410 | 1100
Cn1c(-c2ccc(S(C)(=O)=O)cc2F)cc2ncc(-c3ccc(N4CCN5CCCC5C4)cc3)cc21 (stereo not drawn) [Example 42] | 2800 | 436 | > 50000
CC(C)N1C2CCC1CN(c1ccc(-c3cnc4cc(-c5ccc(S(C)(=O)=O)cc5F)n(C)c4c3)cc1)C2 [Example 43] | 7800 | 292 | > 50000
